{
  "source": "patent US20100323950A1",
  "about": "“USE OF BETA-MELANOTROPIN AS A THERAPEUTIC AGENT, EG FOR THE TREATMENT OF AIDS OR ALZHEIMER” (priority 2007, published 2010)",
  "key": {"in vitro": {"assay": "in vitro", "settings": "human, MRC-5 cells (human embryonal lung fibroblasts)"}, "Streptococcus pneumoniae": {"system": "Streptococcus pneumoniae", "settings": "5 micrograms per ml"}, "Pseudomonas aeruginosa": {"system": "Pseudomonas aeruginosa", "settings": "5 micrograms per ml"}, "[1]": {"assay": "Cytotoxicity (dye uptake cell viability) in HepG2-2.2.15 cells", "settings": "human"}, "MRSA": {"system": "MRSA", "settings": "5 micrograms per ml"}},
  "data": [
    {"smiles": "CSCC[C@H](NC(=O)[C@H](CCCNC(=N)N)NC(=O)[C@H](Cc1ccc(O)cc1)NC(=O)[C@@H]1CCCN1C(=O)CNC(=O)[C@H](CCC(=O)O)NC(=O)[C@H](CC(=O)O)NC(=O)[C@H](CCCCN)NC(=O)[C@H](CCCCN)NC(=O)[C@H](CCC(=O)O)NC(=O)[C@H](C)N)C(=O)N[C@@H](CCC(=O)O)C(=O)N[C@@H](Cc1c[nH]cn1)C(=O)N[C@@H](Cc1ccccc1)C(=O)N[C@@H](CCCNC(=N)N)C(=O)N[C@@H](Cc1c[nH]c2ccccc12)C(=O)NCC(=O)N[C@@H](CO)C(=O)N1CCC[C@H]1C(=O)N1CCC[C@H]1C(=O)N[C@@H](CCCCN)C(=O)N[C@@H](CC(=O)O)C(=O)O", "note": "[Beta MSH]", "values": [
      {"measurement": "viability at 144 h", "setting": "in vitro", "result": 100, "unit": "%"},
      {"measurement": "% inhibition", "setting": "Streptococcus pneumoniae", "result": 0.0, "unit": "%"},
      {"measurement": "% inhibition", "setting": "Pseudomonas aeruginosa", "result": 0.0, "unit": "%"},
      {"measurement": "viability at 144 h, 10 micrograms per ml", "setting": "[1]", "result": 100, "unit": "%"},
      {"measurement": "% inhibition", "setting": "MRSA", "result": 0.0, "unit": "%"}
    ]}
  ]
}
